In article PMC8632069 (Journal of medicinal chemistry, 2021):

What was measured:
[1] = mice, IV, 10 mg/kg, plasma; cited from earlier work
[2] = tested on: Mfn2-null (i.e. expressing Mfn1 only) murine embryonic fibroblasts; assay: Mitochondrial elongation; assay type: cell-based, mouse; details: dose-response, compared with 2; result in words
[3] = Plasma and nerve tissue pharmacokinetics, single oral dose in non-fasted mice; assay type: in vivo; details: male, CD-1, mouse, 50 mg/kg
[4] = tested on: mitofusin mRNA expression; details: transcriptional enhancer of mitofusin mRNA expression; cited from earlier work

O=C(CCCCCc1ccccc1)N[C@H]1CC[C@H](O)CC1 [Compound 2]
C0 [1]: 50,600 ng/mL

O=C(CCCCc1ccccc1)N[C@H]1CC[C@H](O)CC1 [Compound 3, N-((1r,4r)-4-hydroxycyclohexyl)-5-phenylpentanamide]
mitofusin activation measured as ability to promote mitochondrial fusion (increased aspect ratio) [2]: largely abrogated mitofusin activation

O=C(CCCc1ccccc1)N[C@H]1CC[C@H](O)CC1 [Compound 4, N-((1r,4r)-4-hydroxycyclohexyl)-4-phenylbutanamide]
mitofusin activation measured as ability to promote mitochondrial fusion (increased aspect ratio) [2]: largely abrogated mitofusin activation

O=C(N[C@H]1CC[C@H](O)CC1)C1CC1CCCc1ccccc1 (stereo partly shown) [Compound 5, N-(4-hydroxycyclohexyl)-2-(3-phenylpropyl)cyclopropane-1-carboxamide]
MRT inf ([3]; plasma): 3.58 h | Tmax ([3]; plasma): 0.5 h

O=C(N[C@H]1CC[C@H](O)CC1)[C@@H]1C[C@H]1CCCc1ccccc1 [Compound 5B, N-(4-hydroxycyclohexyl)-2-(3-phenylpropyl)cyclopropane-1-carboxamide]
Kp ([3]; brain and plasma): 0.394

Cc1oncc1C(=O)Nc1ccc(C(F)(F)F)cc1 [leflunomide]
effective concentrations [4]: 10 to 50 µM
